Experimental data reported in publication PMC10333884, “Large‐scale phosphomimetic screening identifies phospho‐modulated motif‐based protein interactions” (Molecular Systems Biology, 2023).
Values belong to the compound of their own block, whether it stands above or below them. Non-standard residues stand in square brackets, D forms with d. Residues, ends and D or L forms follow the SMILES beside them. pT = C[C@@H](OP(=O)(O)O)[C@H](N)C(=O)O; pS = N[C@@H](COP(=O)(O)O)C(=O)O

Assays:
KPNA4 ARM Major = molecular target: T1, KPNA4 ARM Major (Homo sapiens, UniProt O00629); experiment: FP displacement assay, KPNA4 ARM major pocket; type: binding; conditions: major pocket probe FITC-MYC 5 nM, 50 mM sodium phosphate pH 7.4, room temperature, at least three technical replicates, read-out: KD values ± SEM
T1 construct: 60-487; GST (cleaved yes); made in house; host or cells: Escherichia coli BL21-Gold(DE3)
Description: (§1) FP experiments were performed as described previously (Kliche et al, [2021]). Shortly, in order to monitor the binding event, FITC‐labelled peptides were used (excitation 495 nm, emission: 535 nm) and the FP signal was recorded in mP on a SpectraMax iD5 Multi‐Mode Microplate Reader (Molecular Devices) by measuring the emitted light in two angels. The measurements were performed at room temperature and prepared in nonbinding black half area 96‐well microplates (Corning®; 50 μl/well). For measuring direct binding, that is saturation curves, a 1:1 dilution series of protein domain (25 μl/well) was generated in 50 mM sodium phosphate buffer pH 7.4 and the measurement performed with 5 nM FITC‐labelled peptide (25 μl/well). The buffer‐corrected values were subsequently plotted with PRISM and fitted to the quadratic equation (Gianni et al, [2005]).
(§2) The 1:1 dilution series in this experiment was performed with the unlabelled peptide in 50 mM sodium phosphate buffer pH 7.4, so that each well‐contained unlabelled peptide (25 μl) at a certain concentration and pre‐formed complex (25 μl). The KD values of this indirectly monitored binding event were calculated as described previously (Nikolovska‐Coleska et al, [2004]). All measurements were at least in technical triplicates as well as biological duplicates when indicated. An amplitude shift between repeat measurements in the displacement experiments was occasionally observed due to variations in the protein preparations. If that was the case, the “active” protein concentration was back‐calculated according to the quadratic equation from the saturation curves performed in parallel. By comparing the active protein concentrations in the complex between different protein preparations, the amplitude was normalised.

KPNA4 ARM minor = molecular target: T2, KPNA4 ARM minor (Homo sapiens, UniProt O00629); experiment: FP displacement assay, KPNA4 ARM minor pocket; type: binding; conditions: minor pocket probe FITC-NCOR2 5 nM, 50 mM sodium phosphate pH 7.4, room temperature, at least three technical replicates, read-out: KD values ± SEM
T2 construct: 60-487; GST (cleaved yes); made in house; host or cells: Escherichia coli BL21-Gold(DE3)
Description: as §1, §2

TSG101 UEV = molecular target: T3, TSG101 UEV (Homo sapiens, UniProt Q99816); experiment: FP displacement assay, TSG101 UEV; type: binding; conditions: for IC50: Fig 4B, TSG101 UEV, technical triplicates, read-out: IC50 values of displacement curves, with SEM; for Kd: probe FITC-HIV2_Gag 5 nM, 50 mM sodium phosphate pH 7.4, room temperature, at least three technical replicates, read-out: KD values ± SEM
T3 construct: TSG101_UEV__Q99816_1_145; made in house; host or cells: Escherichia coli BL21-Gold(DE3)
T3 sequence (Q99816 1-145): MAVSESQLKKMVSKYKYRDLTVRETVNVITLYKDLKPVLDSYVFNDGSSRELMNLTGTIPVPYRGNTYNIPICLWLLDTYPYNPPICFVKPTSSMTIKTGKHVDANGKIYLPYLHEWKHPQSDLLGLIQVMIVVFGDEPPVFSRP
Description: as §1, §2

bait protein domains = experiment: Phosphomimetic ProP-PD selection against the PM_HD2 library (NGS counts, confidence level, PES), any bait; type: binding, human; set-up: Confidence / Max confidence: scale not given here; conditions: bait ABL1_SH3__P00519_60_121; for Has possible phosphoregulated psite? (PES +2/-2, p<0.01) / Max confidence: hit given as wt version; for Confidence / Promiscuity / Specificity: selection results by peptide
Description: Selections using the PM_HD2 phage library were performed as described previously with minor modification to the original protocol. The corresponding tag protein (either GST or MBP) was first used during negative selections. Selections were run for 4 days. • Bait and tag proteins (10–15 μg in 100 μl PBS) were immobilised in 96‐well MaxiSorb plate (NUNC) o.n. at 4°C. • Escherichia coli OmniMax bacteria were grown in 2YT medium supplemented with tetracycline (100 μg/ml) at 37°C and 200 rpm. • Plates with immobilised bait/tag proteins were blocked with 0.5% BSA in PBS for 1 h at 4°C. • Phage library (10 μl/well) was prepared by diluting 10× with PBS and adding one‐fourth of the volume of PEG/NaCl. For phage precipitation, prepared library was incubated for 10 min on ice followed by centrifugation for 10 min at 10,000 × g at 4°C. Phages were resuspended in 0.5% BSA, 0.05% Tween in PBS. • Plates with tag proteins were washed 4× with 0.05% Tween in PBS, and naïve phage library was added to each well (100 μl/well) and the plates incubated for 1 h at 4°C. • Plates with bait protein were washed 4× with 0.05% Tween in PBS, and nonbound phages were transferred from the tag protein plate and the plates incubated for 1 h at 4°C. • Plates were again washed 5× with 0.05% Tween in PBS, and bound phages were eluted with log‐phase OmniMax bacteria (100 μl/well) by incubating for 30 min at 37°C at 200 rpm. • M13K07 helper phage (10^12 cfu/ml) was added to each well and the plates incubated for 45 min at 37°C at 200 rpm. • Amplification took place o.n. by adding the eluted phages to 1.1 ml 2YT media supplemented with kanamycin (25 μg/ml), carbenicillin (50 μg/ml) and 0.3 μM IPTG in a 96‐deep‐well plate and incubating o.n. at 37°C at 200 rpm. • Bacteria were pelleted by centrifugation for 15 min at 1,700 × g at 4°C. The phage supernatant was pH‐adjusted by the addition of 10× PBS and remaining bacteria heat‐inactivated by incubating for 10 min at 60°C. Selections were repeated as described from (5).
Based on the results from phage pool ELISAs, samples from selection Day 3 and 4 were selected for NGS, as described previously (Benz et al, [2022]). • Peptide coding regions were amplified and dual‐barcoded by PCR. 5 μl of the enriched phage pools (50 μl reactions) and a high‐fidelity phusion polymerase (Roche) were used for the PCR reaction. Amplification was confirmed by running the PCR product on 2% agarose gel with a 50 bp ladder. • PCR products (25 μl) were purified with 25 μl of Mag‐bind Total Pure NGS beads and normalised in the same step by taking 10 μl of each reaction after resuspension (Qiagen Elution buffer: 10 mM Tris‐Cl and 0.1 mM EDTA (pH 8.5)) from the beads. • The samples were cleaned up with a PCR purification kit (Qiagen) and subsequently run on a 2% agarose gel, and bands of the correct size (ca. 200 bp) were purified with the QIAquick Gel extraction Kit (Qiagen). From the columns, samples were eluted with 30 μl TE (10 mM Tris–HCl, 1 mM EDTA. pH 7.5) buffer and quantified with Quant‐iT PicoGreen dsDNA Assay Kit. • Samples were sequenced on MiSeq (MSC 2.5.0.5/RTA 1.18.54) with a 151 nt (Read1) setup using “Version3” chemistry. The Bcl to FastQ conversion was performed using bcl2fastq_v2.20.0.422 from the CASAVA software suite.
The processing of sequencing data was performed as described in Ali et al ([2020]). In brief: Pooled results from ~500 selection experiments were demultiplexed by identifying unique combinations of 5′ and 3′ barcodes, sequences with an average quality score of 20 or more were conserved and their adaptors were trimmed, and DNA sequences translated using in‐house custom Python scripts. A table for each experiment was built containing peptide sequences associated with their sequencing counts. […]

T1 sequence (O00629 60-487): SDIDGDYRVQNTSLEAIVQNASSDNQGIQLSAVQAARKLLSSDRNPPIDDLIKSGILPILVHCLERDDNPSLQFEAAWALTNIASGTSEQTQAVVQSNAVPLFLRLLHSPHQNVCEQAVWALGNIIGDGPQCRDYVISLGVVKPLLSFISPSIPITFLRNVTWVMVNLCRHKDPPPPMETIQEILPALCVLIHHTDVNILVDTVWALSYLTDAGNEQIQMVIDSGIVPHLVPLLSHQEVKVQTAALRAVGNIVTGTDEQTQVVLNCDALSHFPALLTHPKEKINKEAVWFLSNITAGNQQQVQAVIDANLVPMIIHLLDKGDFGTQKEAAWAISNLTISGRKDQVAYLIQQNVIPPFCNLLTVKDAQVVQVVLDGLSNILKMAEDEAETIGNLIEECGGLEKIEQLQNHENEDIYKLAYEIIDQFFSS
T2 sequence (O00629 60-487): as above

Compound: LTYPQYSPPQPRPGVI
- Has possible phosphoregulated psite? (PES +2/-2, p<0.01) (bait protein domains): yes
- Max confidence (bait protein domains): 4

Compound: PATSPPKEPPQLEALQ
- Confidence (bait protein domains): 2
- Promiscuity (bait protein domains): 2
- Specificity (bait protein domains): 0.9898

Compound: PPFSPPPSPRGEVERG
- Has possible phosphoregulated psite? (PES +2/-2, p<0.01) (bait protein domains): yes
- Max confidence (bait protein domains): 3

Compound: CSCC[C@H](NC(=O)[C@@H]1CCCN1C(=O)[C@H](COP(=O)(O)O)NC(=O)[C@H](CC(C)C)NC(=O)[C@@H]1CCCN1C(=O)[C@H](C)NC(=O)[C@@H](NC(=O)[C@@H]1CCCN1C(=O)[C@H](CO)NC(=O)[C@H](CO)NC(=O)[C@H](C)NC(=O)CNC(=O)[C@H](CC(N)=O)NC(=O)[C@H](Cc1ccc(O)cc1)NC(C)=O)[C@@H](C)O)C(=O)N[C@@H](CO)C(=O)N1CCC[C@H]1C(N)=O [GJA1_269–283 pS] (Ac-YNGASSPTAPL[pS]PMSP-NH2)
- IC50 (TSG101 UEV): 420 ± 29 µM
- Kd (TSG101 UEV): 209 ± 8 µM

Compound: PSYSPPDTSPANRSFV
- Confidence (bait protein domains): 2
- Promiscuity (bait protein domains): 1
- Specificity (bait protein domains): 1

Compound: CSCC[C@H](NC(=O)[C@@H]1CCCN1C(=O)[C@H](CO)NC(=O)[C@H](CC(C)C)NC(=O)[C@@H]1CCCN1C(=O)[C@H](C)NC(=O)[C@@H](NC(=O)[C@@H]1CCCN1C(=O)[C@H](CO)NC(=O)[C@H](CO)NC(=O)[C@H](C)NC(=O)CNC(=O)[C@H](CC(N)=O)NC(=O)[C@H](Cc1ccc(O)cc1)NC(C)=O)[C@@H](C)O)C(=O)N[C@@H](CO)C(=O)N1CCC[C@H]1C(N)=O [GJA1_269–283 wt] (Ac-YNGASSPTAPLSPMSP-NH2)
- Kd (TSG101 UEV): 232 ± 16 µM

Results, then the compound that gave them:

- Kd (KPNA4 ARM Major): 50 ± 7 µM
- Kd (KPNA4 ARM minor): 248 ± 3 µM
Compound: CC(=O)N[C@@H](CC(=O)O)C(=O)N[C@H](C(=O)N[C@@H](CCC(=O)O)C(=O)N[C@@H](Cc1c[nH]cn1)C(=O)NCC(=O)NCC(=O)N[C@@H](CCCCN)C(=O)N[C@@H](CCCNC(=N)N)C(=O)N[C@@H](COP(=O)(O)O)C(=O)N[C@@H](CCCNC(=N)N)C(=O)N[C@@H](CC(C)C)C(=O)N[C@H](C(=O)N1CCC[C@H]1C(=O)N[C@H](C(=O)N[C@@H](CO)C(=O)N[C@@H](Cc1ccc(O)cc1)C(N)=O)C(C)C)[C@@H](C)O)C(C)C [SQSTM1_258–272 pS] (Ac-DVEHGGKR[pS]RLTPVSY-NH2)

- IC50 (TSG101 UEV): 34 ± 10 µM
- Kd (TSG101 UEV): 16 ± 3 µM
Compound: CC[C@H](C)[C@H](NC(=O)[C@H](CO)NC(=O)[C@H](CCC(N)=O)NC(C)=O)C(=O)N[C@@H](C)C(=O)N[C@@H](CCCNC(=N)N)C(=O)N[C@@H](CCC(=O)O)C(=O)N1CCC[C@H]1C(=O)N[C@@H](CO)C(=O)N[C@@H](C)C(=O)N1CCC[C@H]1C(=O)N[C@@H](CO)C(=O)N[C@H](C(=O)N1CCC[C@H]1C(=O)N[C@H](C(=O)N1CCC[C@H]1C(=O)N[C@@H](Cc1ccc(O)cc1)C(N)=O)[C@@H](C)O)[C@@H](C)CC [PDCD6IP711–725 wt] (Ac-QSIAREPSAPSIPTPY-NH2)

- IC50 (TSG101 UEV): 34 ± 10 µM
- Kd (TSG101 UEV): 16 ± 3 µM
Compound: CC(=O)N[C@@H](Cc1c[nH]cn1)C(=O)N[C@@H](CO)C(=O)NCC(=O)N[C@@H](CC(N)=O)C(=O)N[C@H](C(=O)N[C@H](C(=O)N1CCC[C@H]1C(=O)N[C@H](C(=O)N[C@@H](C)C(=O)N1CCC[C@H]1C(=O)N1CCC[C@H]1C(=O)N[C@@H](Cc1ccc(O)cc1)C(=O)N[C@@H](CC(C)C)C(=O)N[C@@H](CCC(N)=O)C(=O)N[C@@H](CCC(=O)O)C(=O)N[C@@H](CO)C(N)=O)[C@@H](C)O)[C@@H](C)OP(=O)(O)O)C(C)C [PIP4P2_17–32 pS] (Ac-HSGNV[pT]PTAPPYLQES-NH2)
